Experimental data reported in patent US20210348164A1, “ENDOGENOUS CYTOPLASMIC ALU COMPLEMENTARY DNA IN AGE-RELATED MACULAR DEGENERATION” (University of Virginia Patent Foundation, priority 2018, published 2021).
“Also recorded” adds a separate entry of the source.

Assays:
[1] = system: Alu G25C RNA-induced RPE degeneration; test: Alu G25C RNA-induced RPE degeneration in wild-type mice; format: in vivo, mouse; details: WT mice; subretinal Alu G25C RNA
[2] = system: reverse transcriptase activity of cytoplasmic fractions of F9 cells; test: In vitro reverse transcriptase activity of cytoplasmic fractions (Alu RNA-templated, Alu-specific qPCR); format: biochemical, mouse
Experimental: In vitro reverse transcriptase (RT) activity. In vitro reverse transcriptase (RT) activity in nuclear and cytoplasmic protein fractions was assessed using an Alu RNA-templated reaction. The RT reaction was carried out in a 20 μl reaction mix containing Alu RNA template (10 ng); Alu primer ([…]); dNTPs mix; cytoplasmic or nuclear protein, and Quantiscript RT Buffer (Qiagen). The reaction mixture was incubated at 42° C. for 30 minutes. The resulting cDNA was quantified by qPCR using Alu RNA template-specific primers. The reaction to evaluate self-priming activity of Alu RNA was carried out in the absence of priming oligos in a 20 μl reaction mix containing: Alu RNA with 3′-U tail; dNTP mix; cytoplasmic protein from mouse RPE cells; and Quantiscript RT Buffer (Qiagen) as described above. The resulting cDNA product was quantified by qPCR using Alu RNA template-specific primers. Alu RNA tailed on the 3′ end with chain terminator dideoxy thymidine base (ddTTP) was generated using TdT (New England Biolabs (NEB)) according to the manufacturer's instructions. Alu RNA tailed on the 3′ end with chain terminator cordycepin tri-phosphate was generated using PAP (NEB) according to the manufacturer's instructions.

[3] = system: L1 ORF2p-facilitated Alu RNA-induced RPE degeneration; test: Alu RNA-induced RPE degeneration in L1 ORF2-expressing Oryzomys palustris; format: in vivo; details: high dose (500 μmol)
Experimental: Assessment of RPE degeneration. Subretinal injections were performed as previously described (Kaneko et al., 2011; Tarallo et al., 2012; Kerur et al., 2013; Fowler et al., 2014; Kim et al., 2014). Seven days after subretinal injection, RPE health was assessed by fundus photography and immunofluorescence staining of zonula occludens-1 (ZO-1) on RPE flat mounts (whole mount of posterior eye cup containing RPE and choroid layers). Mouse RPE/choroid flat mounts were fixed with 2% paraformaldehyde, stained with rabbit polyclonal antibodies against mouse ZO-1 (1:100; Invitrogen Corp. Carlsbad, Calif., United States of America) and visualized with Alexa-594 (Invitrogen Corp.). […]
Quantification of RPE degeneration. Quantification of RPE degeneration was performed using two methodologies (binary assignment and cellular morphometry) as described previously (Kerur et al., 2018): Binary assignment (healthy versus unhealthy; Kerur et al., 2013; Fowler et al., 2014; Kim et al., 2014; Kerur et al., 2018) was independently performed by two blinded raters (inter-rater agreement=99.7%; Pearson r2=0.986, P<0.0001; Fleiss x=0.993, P<0.0001). […]

| Molecule | Alu G25C RNA-induced RPE degeneration [1] | Alu cDNA formation from Alu RNA (reverse transcriptase activity) [2] | Alu RNA-induced RPE degeneration [3] |
| --- | --- | --- | --- |
| L1 siRNA: siRNA targeting L1; cholesterol-conjugated mouse L1 siRNA (SEQ ID NOs: 48 and 49) in vivo, human L1 siRNA sequences in human cells (chain 1 ACUAUUACUCUGAUACCTT; chain 2 UGUACUAAGGUCAAAUCTT; cholesterol conjugated, position not given here) | prevented Alu G25C RNA-induced RPE degeneration | reduced Alu cDNA production; also recorded: reduced Alu cDNA formation | – |
| CC(C)Nc1cccnc1N1CCN(C(=O)c2cc3cc(NS(C)(=O)=O)ccc3[nH]2)CC1 [DLV, delavirdine] | – | – | blocked |
